According to paper PMC3196554 (Chemical research in toxicology, 2010):
Read-outs that look alike come from different tables or passages of the source.

Assays:
[1] = cited from earlier work
P450 1A2 [2] = settings: subjects given furafylline prior to cooked beef; cited from earlier work
[3] = 14C-PhIP; cited from earlier work
[4] = for Amount in urine collected for 10 h after consumption of cooked beef: Mean ± SD of 3 independent measurements; for % Dose in urine collected for 10 h after consumption of cooked beef: metabolites as % of dose of parent MeIQx or PhIP
P450 1A2 [5] = settings: human hepatocytes pretreated with furafylline; cited from earlier work

Cn1c(N)nc2ncc(-c3ccccc3)cc21 [PhIP, 2-amino-1-methyl-6-phenylimidazo[4,5-b]pyridine]
pKa [1]: 5.65 | Share of elimination accounted for by P450 1A2 (P450 1A2 [2]): 70% | Proportion of the dose eliminated in urine within 24 h as isomeric HON-PhIP-N-glucuronide conjugates [3]: approximately 50% | Amount in urine collected for 10 h after consumption of cooked beef ([4]; Subject S-001): 37.1 ± 3.3 ng | % Dose in urine collected for 10 h after consumption of cooked beef ([4]; Subject S-001): 0.8 % Dose | Amount in urine collected for 10 h after consumption of cooked beef ([4]; Subject S-003): 6.5 ± 1.1 ng | % Dose in urine collected for 10 h after consumption of cooked beef ([4]; Subject S-003): 0.1 % Dose | Amount in urine collected for 10 h after consumption of cooked beef ([4]; Subject S-005): 11.4 ± 0.9 ng | % Dose in urine collected for 10 h after consumption of cooked beef ([4]; Subject S-005): 0.2 % Dose | Amount in urine collected for 10 h after consumption of cooked beef ([4]; Subject S-008): 9.5 ± 0.6 ng | % Dose in urine collected for 10 h after consumption of cooked beef ([4]; Subject S-008): 0.2 % Dose | Amount in urine collected for 10 h after consumption of cooked beef ([4]; Subject S-009): 18.5 ± 1.6 ng | % Dose in urine collected for 10 h after consumption of cooked beef ([4]; Subject S-009): 0.4 % Dose | Amount in urine collected for 10 h after consumption of cooked beef ([4]; Subject S-012): 17.0 ± 0.7 ng | % Dose in urine collected for 10 h after consumption of cooked beef ([4]; Subject S-012): 0.3 % Dose | Amount in urine collected for 10 h after consumption of cooked beef ([4]; Subject S-013): 14.1 ± 1.2 ng | % Dose in urine collected for 10 h after consumption of cooked beef ([4]; Subject S-013): 0.3 % Dose | Amount in urine collected for 10 h after consumption of cooked beef ([4]; Subject S-014): 8.9 ± 0.6 ng | % Dose in urine collected for 10 h after consumption of cooked beef ([4]; Subject S-014): 0.2 % Dose | Amount in urine collected for 10 h after consumption of cooked beef ([4]; Subject S-015): 8.2 ± 1.0 ng | % Dose in urine collected for 10 h after consumption of cooked beef ([4]; Subject S-015): 0.2 % Dose | Amount in urine collected for 10 h after consumption of cooked beef ([4]; Subject S-020): 18.9 ± 1.6 ng | % Dose in urine collected for 10 h after consumption of cooked beef ([4]; Subject S-020): 0.4 % Dose

Cc1nc2c([nH]1)c(=O)n(C)c(=O)n2Cc1ccco1 [furafylline]
Inhibition of formation of 8-CH2OH-IQx, IQx-8-COOH and glucuronide conjugates of HONH-MeIQx and HONH-PhIP (P450 1A2 [5]): inhibited to a similar degree
